In publication PMC10947119 (Angewandte Chemie (International Ed. in English), 2023):
Read-outs that look alike come from different tables or passages of the source.

Legend:
[1] = tested on: coaD CRISPRi knockdown Mtb mutant (Mtb H37RvMA); format: cell-based, Mycobacterium tuberculosis
[2] = tested on: coaBC CRISPRi knockdown Mtb mutant (Mtb H37RvMA); format: cell-based, Mycobacterium tuberculosis; conditions: highest ATc concentrations compatible with uninhibited proliferation

Compound	Effect of ATc (coaD silencing) on susceptibility [1]	Effect of ATc (coaBC silencing) on susceptibility [2]	minimum inhibitory concentration, MIC [1]	Effect of ATc (coaD silencing) on susceptibility ([1]; 1.6 and 0.8 ng/mL ATc)
NNC(=O)c1ccncc1 [isoniazid, reference compound]	did not render the coaD CRISPRi Mtb mutant more susceptible			
O=C(O)c1cnn(-c2ccccc2)c1OCCCc1c[nH]c2ccccc12 [compound 20]		little‐to‐no effect	≈ 60 μM	enhanced in an ATc concentration‐dependent manner
CO[C@H]1/C=C/O[C@@]2(C)Oc3c(C)c(O)c4c(O)c(c(/C=N/N5CCN(C)CC5)c(O)c4c3C2=O)NC(=O)/C(C)=C\C=C\[C@H](C)[C@H](O)[C@@H](C)[C@@H](O)[C@@H](C)[C@H](OC(C)=O)[C@@H]1C [rifampicin, reference compound]	did not render the coaD CRISPRi Mtb mutant more susceptible			
